From patent publication US12258327B2, “5-membered heteroaryl-containing aminopyridine compounds as EGFR inhibitors” (YUHAN CORPORATION, priority 2021, dated 2025)
Like-named read-outs stand apart in the source and are kept apart here.

What was measured:
[1] = target: EGFR del19/T790M/C797S (Homo sapiens, UniProt P00533, C797S/DEL746-750/T790M); assay: Biochemical EGFR kinase assay (Lance Ultra TR-FRET), triple mutant del19/T790M/C797S
Method in brief: (§1)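 Enzyme reactions lasted 1 hour at room temperature with test compounds between 0.003 and 10 μM, followed by 10 mM EDTA quench.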

[2] = target: EGFR L858R/T790M/C797S (Homo sapiens, UniProt P00533, C797S/L858R/T790M); assay: Biochemical EGFR kinase assay (Lance Ultra TR-FRET), triple mutant L858R/T790M/C797S
Method in brief: as §1

[3] = target: EGFR del19/C797S (Homo sapiens, UniProt P00533, C797S/DEL746-750); assay: Biochemical EGFR kinase assay (Lance Ultra TR-FRET), double mutant del19/C797S
Method in brief: as §1

[4] = target: EGFR L858R/C797S (Homo sapiens, UniProt P00533, C797S/L858R); assay: Biochemical EGFR kinase assay (Lance Ultra TR-FRET), double mutant L858R/C797S
Method in brief: as §1

[5] = target: EGFR wildtype (WT) (Homo sapiens, UniProt P00533); assay: Biochemical EGFR kinase assay (Lance Ultra TR-FRET), wildtype
Method in brief: as §1

[6] = IC50 del19/T790M/C797S (nM) 100 μM ATP, 100 μM ATP
[7] = Km ATP, read-out: IC50 del19/T790M/C797S (nM) Km ATP
[8] = IC50 L858R/T790M/C797S (nM) 100 μM ATP, 100 μM ATP
[9] = Km ATP, read-out: IC50 L858R/T790M/C797S (nM) Km ATP
[10] = IC50 del19/C797S (nM) 100 μM ATP, 100 μM ATP
[11] = Km ATP, read-out: IC50 del19/C797S (nM) Km ATP
[12] = IC50 L858R/C797S (nM) 100 μM ATP, 100 μM ATP
[13] = Km ATP, read-out: IC50 L858R/C797S (nM) Km ATP
[14] = IC50 WT (nM) 100 μM ATP, 100 μM ATP
[15] = Km ATP, read-out: IC50 WT (nM) Km ATP

EGFR L858R/T790M/C797S, sequence (P00533 25-1210 T790M/C797S/L858R): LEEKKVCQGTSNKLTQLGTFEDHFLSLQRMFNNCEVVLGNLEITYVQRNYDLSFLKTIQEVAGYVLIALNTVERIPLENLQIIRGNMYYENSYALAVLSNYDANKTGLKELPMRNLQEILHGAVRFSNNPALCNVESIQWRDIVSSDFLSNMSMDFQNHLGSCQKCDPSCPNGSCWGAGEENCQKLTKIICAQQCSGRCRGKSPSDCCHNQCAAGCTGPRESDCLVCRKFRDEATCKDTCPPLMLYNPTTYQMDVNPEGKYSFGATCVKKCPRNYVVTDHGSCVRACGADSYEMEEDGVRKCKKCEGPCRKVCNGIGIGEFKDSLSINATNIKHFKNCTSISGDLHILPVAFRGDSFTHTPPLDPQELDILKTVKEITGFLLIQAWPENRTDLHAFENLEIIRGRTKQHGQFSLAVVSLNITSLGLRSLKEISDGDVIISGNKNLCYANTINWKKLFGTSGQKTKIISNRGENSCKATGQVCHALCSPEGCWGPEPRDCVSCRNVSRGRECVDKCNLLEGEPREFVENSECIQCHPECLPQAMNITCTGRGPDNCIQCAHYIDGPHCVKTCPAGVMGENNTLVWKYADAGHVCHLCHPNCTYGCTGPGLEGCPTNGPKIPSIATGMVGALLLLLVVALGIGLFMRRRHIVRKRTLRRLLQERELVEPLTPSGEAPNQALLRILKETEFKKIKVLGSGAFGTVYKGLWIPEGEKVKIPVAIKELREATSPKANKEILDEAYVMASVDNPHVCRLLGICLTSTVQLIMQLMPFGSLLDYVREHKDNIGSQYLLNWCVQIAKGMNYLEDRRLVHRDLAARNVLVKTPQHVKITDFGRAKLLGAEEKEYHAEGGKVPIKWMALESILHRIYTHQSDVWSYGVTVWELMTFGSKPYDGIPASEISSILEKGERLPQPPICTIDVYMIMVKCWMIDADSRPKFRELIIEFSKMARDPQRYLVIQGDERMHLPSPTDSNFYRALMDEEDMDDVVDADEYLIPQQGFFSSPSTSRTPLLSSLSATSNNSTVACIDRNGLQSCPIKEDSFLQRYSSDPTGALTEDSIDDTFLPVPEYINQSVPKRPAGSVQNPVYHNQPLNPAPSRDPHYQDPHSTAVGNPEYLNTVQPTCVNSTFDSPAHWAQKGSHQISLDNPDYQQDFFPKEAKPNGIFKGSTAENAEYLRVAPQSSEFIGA
EGFR wildtype (WT), sequence (P00533 25-1210): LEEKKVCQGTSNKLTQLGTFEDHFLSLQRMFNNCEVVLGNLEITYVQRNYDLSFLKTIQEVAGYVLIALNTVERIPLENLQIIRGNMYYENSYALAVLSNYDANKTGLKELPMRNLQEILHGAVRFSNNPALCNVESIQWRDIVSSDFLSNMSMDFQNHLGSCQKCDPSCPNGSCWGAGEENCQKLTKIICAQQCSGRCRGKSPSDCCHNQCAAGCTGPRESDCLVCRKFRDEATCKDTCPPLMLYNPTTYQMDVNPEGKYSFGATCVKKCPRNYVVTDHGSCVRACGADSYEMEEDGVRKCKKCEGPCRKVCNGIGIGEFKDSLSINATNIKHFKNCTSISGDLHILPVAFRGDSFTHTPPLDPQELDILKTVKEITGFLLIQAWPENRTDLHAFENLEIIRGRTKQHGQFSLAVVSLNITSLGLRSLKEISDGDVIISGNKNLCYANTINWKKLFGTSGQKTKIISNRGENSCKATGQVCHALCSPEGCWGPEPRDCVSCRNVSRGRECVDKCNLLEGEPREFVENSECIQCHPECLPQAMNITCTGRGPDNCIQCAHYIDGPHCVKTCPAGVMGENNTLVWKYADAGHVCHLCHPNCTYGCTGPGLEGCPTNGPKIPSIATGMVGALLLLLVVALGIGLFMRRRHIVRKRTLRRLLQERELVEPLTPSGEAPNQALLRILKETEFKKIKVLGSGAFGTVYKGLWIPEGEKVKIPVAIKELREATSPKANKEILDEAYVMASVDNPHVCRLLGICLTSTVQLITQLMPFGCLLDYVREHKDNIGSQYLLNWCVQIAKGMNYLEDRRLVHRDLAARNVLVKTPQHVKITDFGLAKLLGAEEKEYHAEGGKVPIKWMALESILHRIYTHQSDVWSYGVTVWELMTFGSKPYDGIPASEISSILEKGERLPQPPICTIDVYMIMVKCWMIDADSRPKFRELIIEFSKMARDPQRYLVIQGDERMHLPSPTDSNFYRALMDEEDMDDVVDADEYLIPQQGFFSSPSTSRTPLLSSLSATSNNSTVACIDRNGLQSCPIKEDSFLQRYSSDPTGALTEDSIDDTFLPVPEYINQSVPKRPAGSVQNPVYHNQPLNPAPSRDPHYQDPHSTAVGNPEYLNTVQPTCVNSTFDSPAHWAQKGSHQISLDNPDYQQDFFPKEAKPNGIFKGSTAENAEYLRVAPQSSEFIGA
EGFR L858R/C797S, sequence (P00533 25-1210 C797S/L858R): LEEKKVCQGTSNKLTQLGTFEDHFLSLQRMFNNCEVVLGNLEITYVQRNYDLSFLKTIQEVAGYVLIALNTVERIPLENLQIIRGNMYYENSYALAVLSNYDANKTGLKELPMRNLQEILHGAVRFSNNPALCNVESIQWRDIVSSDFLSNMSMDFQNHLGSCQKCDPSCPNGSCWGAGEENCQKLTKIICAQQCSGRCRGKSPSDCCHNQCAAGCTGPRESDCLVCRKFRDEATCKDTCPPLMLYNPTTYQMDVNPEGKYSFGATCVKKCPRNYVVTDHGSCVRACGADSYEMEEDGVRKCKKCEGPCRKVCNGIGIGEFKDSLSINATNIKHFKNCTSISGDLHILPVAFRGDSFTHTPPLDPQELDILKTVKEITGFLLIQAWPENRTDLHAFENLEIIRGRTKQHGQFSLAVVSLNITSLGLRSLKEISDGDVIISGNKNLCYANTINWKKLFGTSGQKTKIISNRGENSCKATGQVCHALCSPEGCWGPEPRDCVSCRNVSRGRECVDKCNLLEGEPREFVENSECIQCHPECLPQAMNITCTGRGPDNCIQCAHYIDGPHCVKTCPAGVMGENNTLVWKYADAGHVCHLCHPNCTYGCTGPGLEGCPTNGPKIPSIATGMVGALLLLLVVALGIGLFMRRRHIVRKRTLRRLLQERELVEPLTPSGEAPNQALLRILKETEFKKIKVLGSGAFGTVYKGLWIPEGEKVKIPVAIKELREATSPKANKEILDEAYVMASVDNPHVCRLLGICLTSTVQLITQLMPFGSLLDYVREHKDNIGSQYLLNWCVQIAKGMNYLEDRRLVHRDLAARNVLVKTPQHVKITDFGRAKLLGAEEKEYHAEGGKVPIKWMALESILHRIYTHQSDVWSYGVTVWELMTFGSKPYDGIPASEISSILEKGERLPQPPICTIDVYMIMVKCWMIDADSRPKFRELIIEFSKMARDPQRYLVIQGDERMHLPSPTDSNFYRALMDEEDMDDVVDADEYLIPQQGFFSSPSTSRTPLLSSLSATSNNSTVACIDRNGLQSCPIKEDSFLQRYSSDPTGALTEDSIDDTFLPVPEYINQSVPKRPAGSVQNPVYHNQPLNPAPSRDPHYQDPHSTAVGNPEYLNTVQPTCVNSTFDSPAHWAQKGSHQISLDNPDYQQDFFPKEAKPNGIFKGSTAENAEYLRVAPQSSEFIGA
EGFR del19/C797S, sequence (P00533 with tags, fused parts or gaps DEL746-750/C797S): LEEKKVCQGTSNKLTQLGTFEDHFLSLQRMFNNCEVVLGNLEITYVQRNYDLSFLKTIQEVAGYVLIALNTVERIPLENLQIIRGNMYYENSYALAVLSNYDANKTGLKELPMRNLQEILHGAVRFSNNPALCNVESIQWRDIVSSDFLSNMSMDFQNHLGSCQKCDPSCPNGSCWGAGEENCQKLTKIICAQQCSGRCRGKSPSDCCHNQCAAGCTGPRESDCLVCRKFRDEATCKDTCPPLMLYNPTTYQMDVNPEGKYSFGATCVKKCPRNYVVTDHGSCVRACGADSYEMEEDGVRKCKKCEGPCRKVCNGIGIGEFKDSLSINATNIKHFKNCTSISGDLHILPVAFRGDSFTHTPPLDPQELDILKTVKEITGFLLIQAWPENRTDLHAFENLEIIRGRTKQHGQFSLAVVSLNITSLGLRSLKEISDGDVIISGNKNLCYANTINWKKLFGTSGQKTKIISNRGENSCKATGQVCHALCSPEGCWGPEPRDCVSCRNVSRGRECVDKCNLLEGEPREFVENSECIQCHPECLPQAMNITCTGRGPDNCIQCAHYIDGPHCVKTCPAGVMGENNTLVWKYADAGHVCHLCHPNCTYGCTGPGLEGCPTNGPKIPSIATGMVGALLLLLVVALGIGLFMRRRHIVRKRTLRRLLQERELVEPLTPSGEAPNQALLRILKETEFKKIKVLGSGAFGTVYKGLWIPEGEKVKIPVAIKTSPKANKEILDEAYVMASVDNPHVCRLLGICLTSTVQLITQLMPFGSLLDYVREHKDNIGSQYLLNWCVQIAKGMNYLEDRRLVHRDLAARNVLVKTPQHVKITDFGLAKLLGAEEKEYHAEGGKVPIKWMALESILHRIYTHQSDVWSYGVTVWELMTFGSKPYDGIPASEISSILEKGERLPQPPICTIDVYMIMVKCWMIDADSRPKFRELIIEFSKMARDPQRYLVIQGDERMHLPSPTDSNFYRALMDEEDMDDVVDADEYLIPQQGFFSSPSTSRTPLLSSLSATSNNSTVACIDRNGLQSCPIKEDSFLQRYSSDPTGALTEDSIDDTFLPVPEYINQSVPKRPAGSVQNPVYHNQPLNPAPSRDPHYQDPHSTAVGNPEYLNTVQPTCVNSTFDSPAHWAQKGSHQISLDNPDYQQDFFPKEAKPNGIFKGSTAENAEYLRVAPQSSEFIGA

Compound	IC50 [1, 6] [nM]	IC50 [1, 7] [nM]	IC50 [2, 8] [nM]	IC50 [2, 9] [nM]	IC50 [3, 10] [nM]	IC50 [3, 11] [nM]	IC50 [4, 12] [nM]	IC50 [4, 13] [nM]	IC50 [5, 14] [nM]	IC50 [5, 15] [nM]
O=S(=O)(C1CC1)n1cc(-c2nccc(Nc3cc(N[C@H]4CC[C@@H](CCO)CC4)c(-c4ccn(CC(F)(F)F)n4)cn3)n2)cn1 [Example 269, 2-((1s,4s)-4-((2-((2-(1-(Cyclopropylsulfonyl)-1H-pyrazol-4-yl)pyrimidin-4-yl)amino)-5-(1-(2,2,2-trifluoroethyl)-1H-pyrazol-3-yl)pyridin-4-yl)amino)cyclohexyl)ethan-1-ol]	1.3	2.8	1.4	0.5	29.9	1.3	4	1.4	5750	7.1
O=S(=O)(C1CC1)n1cc(-c2nccc(Nc3cc(N[C@H]4CC[C@H](CCO)CC4)c(-c4ccn(CC(F)(F)F)n4)cn3)n2)cn1 [Example 270, 2-((1r,4r)-4-((2-((2-(1-(Cyclopropylsulfonyl)-1H-pyrazol-4-yl)pyrimidin-4-yl)amino)-5-(1-(2,2,2-trifluoroethyl)-1H-pyrazol-3-yl)pyridin-4-yl)amino)cyclohexyl)ethan-1-ol]	2.1	7.2	1.2	0.7	2700	23.6	35.4	11.2	> 10000	620
O=S(=O)(C1CC1)n1cc(-c2nccc(Nc3cc(N[C@H]4CCC[C@H](CO)C4)c(-c4ccn(CC(F)(F)F)n4)cn3)n2)cn1 [Example 271, ((1S,3S)-3-((2-((2-(1-(Cyclopropylsulfonyl)-1H-pyrazol-4-yl)pyrimidin-4-yl)amino)-5-(1-(2,2,2-trifluoroethyl)-1H-pyrazol-3-yl)pyridin-4-yl)amino)cyclohexyl)methanol]	1.4	0.6	1.4	0.5	122	10.3	8.7	4.6	> 10000	50.1
O=S(=O)(C1CC1)n1cc(-c2nccc(Nc3cc(N[C@H]4CC[C@@H](CN5CCC5)CC4)c(-c4ccn(CC(F)(F)F)n4)cn3)n2)cn1 [Example 272, N^4-((1s,4s)-4-(Azetidin-1-ylmethyl)cyclohexyl)-N^2-(2-(1-(cyclopropylsulfonyl)-1H-pyrazol-4-yl)pyrimidin-4-yl)-5-(1-(2,2,2-trifluoroethyl)-1H-pyrazol-3-yl)pyridine-2,4-diamine]	0.5	0.3	0.2	0.1	0.5	23.9	1.1	0.4	325	1.4
C[C@]1(O)CC[C@@H](Nc2cc(Nc3ccnc(-c4cnn(S(=O)(=O)C5CC5)c4)n3)ncc2-c2cn3c(n2)CCC3)CC1 [Example 274, (1s,4s)-4-((2-((2-(1-(Cyclopropylsulfonyl)-1H-pyrazol-4-yl)pyrimidin-4-yl)amino)-5-(6,7-dihydro-5H-pyrrolo[1,2-a]imidazol-2-yl)pyridin-4-yl)amino)-1-methylcyclohexan-1-ol]	0.5	0.3	0.3	0.2	0.5	0.6	3.8	0.3	4880	3.4
O=S(=O)(C1CC1)n1cc(-c2nccc(Nc3cc(N[C@H]4CC[C@](O)(CO)CC4)c(-c4cc5n(n4)CCCC5)cn3)n2)cn1 [Example 275, (1s,4s)-4-((2-((2-(1-(Cyclopropylsulfonyl)-1H-pyrazol-4-yl)pyrimidin-4-yl)amino)-5-(4,5,6,7-tetrahydropyrazolo[1,5-a]pyridin-2-yl)pyridin-4-yl)amino)-1-(hydroxymethyl)cyclohexan-1-ol]	0.6	0.4	0.5	0.2	0.6	0.4	4.7	0.4	2940	1.8
O=S(=O)(C1CC1)n1cc(-c2nccc(Nc3cc(NC4CCC(F)(CO)CC4)c(-c4cc5n(n4)CCCC5)cn3)n2)cn1 (stereo not shown) [Example 276, (4-((2-((2-(1-(Cyclopropylsulfonyl)-1H-pyrazol-4-yl)pyrimidin-4-yl)amino)-5-(4,5,6,7-tetrahydropyrazolo[1,5-a]pyridin-2-yl)pyridin-4-yl)amino)-1-fluorocyclohexyl)methanol]	1.1	0.8	0.9	0.4	1.4	1.2	121	1.9	> 10000	14.9
CN(C)C[C@H]1CC[C@@H](Nc2cc(Nc3ccnc(-c4cnn(S(=O)(=O)C5CC5)c4)n3)ncc2-c2cc3n(n2)CCCC3)CC1 [Example 277, N^2-(2-(1-(Cyclopropylsulfonyl)-1H-pyrazol-4-yl)pyrimidin-4-yl)-N^4-((1s,4s)-4-((dimethylamino)methyl)cyclohexyl)-5-(4,5,6,7-tetrahydropyrazolo[1,5-a]pyridin-2-yl)pyridine-2,4-diamine]	0.3	0.2	0.3	0.1	0.5	0.2	1.6	0.2	47.5	0.4
CN(C)CCCn1ccc(-c2cnc(Nc3ccnc(-c4cnn(S(=O)(=O)C5CC5)c4)n3)cc2N[C@H]2CC[C@@H](C(C)(C)O)CC2)n1 [Example 278, 2-((1s,4s)-4-((2-((2-(1-(Cyclopropylsulfonyl)-1H-pyrazol-4-yl)pyrimidin-4-yl)amino)-5-(1-(3-(dimethylamino)propyl)-1H-pyrazol-3-yl)pyridin-4-yl)amino)cyclohexyl)propan-2-ol]	0.4	0.6	0.3	0.1	1	0.6	3.4	0.3	669	1.2
CN(C)CCCn1ccc(-c2cnc(Nc3ccnc(-c4cnn(S(=O)(=O)C5CC5)c4)n3)cc2NCC2(CO)COC2)n1 [Example 279, (3-(((2-((2-(1-(Cyclopropylsulfonyl)-1H-pyrazol-4-yl)pyrimidin-4-yl)amino)-5-(1-(3-(dimethylamino)propyl)-1H-pyrazol-3-yl)pyridin-4-yl)amino)methyl)oxetan-3-yl)methanol]	0.3	0.5	0.4	0.3	1	0.6	14.2	0.6	4690	4.9
Cc1cc(-c2cnc(Nc3ccnc(-c4cnn(S(=O)(=O)C5CC5)c4)n3)cc2N[C@H]2CC[C@@H](CO)CC2)nn1C [Example 280, ((1s,4s)-4-((2-((2-(1-(Cyclopropylsulfonyl)-1H-pyrazol-4-yl)pyrimidin-4-yl)amino)-5-(1,5-dimethyl-1H-pyrazol-3-yl)pyridin-4-yl)amino)cyclohexyl)methanol]	1	0.8	0.7	1	0.7	0.2	3.8	0.3	51.9	0.4
Cc1cc(-c2cnc(Nc3ccnc(-c4cnn(S(=O)(=O)C5CC5)c4)n3)cc2N[C@H]2CC[C@@H](C(C)(C)O)CC2)nn1C [Example 281, 2-((1s,4s)-4-((2-((2-(1-(Cyclopropylsulfonyl)-1H-pyrazol-4-yl)pyrimidin-4-yl)amino)-5-(1,5-dimethyl-1H-pyrazol-3-yl)pyridin-4-yl)amino)cyclohexyl)propan-2-ol]	2.8	1.8	2.3	0.6	1.1	0.9	40.4	2.8	806	2.9
O=S(=O)(C1CC1)n1cc(-c2nccc(Nc3cc(N[C@H]4CC[C@@H](CO)CC4)c(-c4ccn(C5COC5)n4)cn3)n2)cn1 [Example 282, ((1s,4s)-4-((2-((2-(1-(Cyclopropylsulfonyl)-1H-pyrazol-4-yl)pyrimidin-4-yl)amino)-5-(1-(oxetan-3-yl)-1H-pyrazol-3-yl)pyridin-4-yl)amino)cyclohexyl)methanol]	0.3	0.3	0.3	0.1	0.5	0.1	0.7	0.1	370	0.6
